Test [1] relates to T-Rex 293 cell line SC3 cells having increased expression of androgen receptor protein due to exposure to doxycycline. Kind of test: Cellular growth inhibition, T-Rex 293 SC3 cells with doxycycline (increased androgen receptor expression), CellTiter-Glo. It counts as cell-based. Conditions: T-Rex 293 SC3 cells with 10 ng/mL doxycycline (increased androgen receptor expression), 72 hours, CellTiter-Glo 2.0. Here is the method:
(§1) The following types of cells were prepared for this experiment: (i) a T-Rex 293 cell line having increased expression of androgen receptor protein due to exposure to doxycycline and (ii) a T-Rex 293 cell line lacking increased expression of androgen receptor protein. Ability of the test compounds to inhibit proliferation of the foregoing cell types was evaluated according to the procedures set forth below.
(§2) The doxycycline-inducible androgen receptor protein expressing cell line was established using the following protocol: T-Rex 293 cells were purchased from Invitrogen (Cat #R71007) and transfected using Lipofectamine 2000 with the wild-type androgen receptor protein sequence cloned into the pcDNA4/TO vector. Transfected cells were selected using 400 μg/mL Zeocin (Invitrogen Cat #R25001). Following selection, single clones were raised and maintained in Dulbecco's Modified Eagle Medium (DMEM) supplemented with 10% w/w Tetracycline-free fetal bovine serum (FBS) and 250 μg/mL Zeocin. Clones were analyzed for expression of androgen receptor protein in the presence and absence of 10 ng/mL doxycycline (Sigma Cat #D9891), and a single doxycycline-inducible clone (hereinafter “SC3”) was selected for use in downstream assays.
(§3) The SC3 cells were seeded on poly-D-lysine coated, black clear-bottom 384-well plates at 2500/well, in 25 μL Phenol Red Free Dulbecco's Modified Eagle Medium (DMEM) supplemented with 10% w/w charcoal-dextran treated fetal bovine serum (FBS) and 1% w/w pen-strep, with or without 10 ng/mL doxycycline. Pen-Strep is a commercially available mixture of penicillin G and streptomycin, which is used in mammalian cell culture media to prevent bacterial contamination. Phenol Red Free Dulbecco's Modified Eagle Medium (DMEM) supplemented with 10% w/w charcoal-dextran treated fetal bovine serum (FBS) and 1% w/w pen-strep, with or without 10 ng/mL doxycycline is herein referred to as Treatment Medium. Following seeding of cells in the plates, the plates were spun at 300×g for 30 seconds, then equilibrated to room temperature for 30 minutes, and then deposited in a humidified tissue culture incubator maintained at 37° C. with 5% CO2.
(§4) At 24 hours after seeding of the cells, dilutions of test compound were prepared in DMSO and dissolved in Treatment Medium, to achieve a final DMSO concentration of 0.5% w/w, thereby providing the Test Compound Solution. A 25 μL aliquot of the Test Compound Solution was added to cells in the well plates. An equal volume of a solution containing DMSO and Treatment Medium was used as a negative control. Following treatment of cells with Test Compound Solution or said equal volume of a solution containing DMSO and Treatment Medium, the plates were spun at 300×g for 30 seconds, and then left in an incubator for 72 hours.
(§5) At the end of the treatment duration, cell viability was quantified with CellTiter-Glo 2.0 reagent (Promega Cat #G9243). For this purpose, plates were equilibrated to room temperature for 30 minutes, and then 25 μL of CellTiter-Glo 2.0 reagent was added to cells in the plate wells. Plates were then agitated on a shaker for two minutes at 500 rpm and subsequently incubated at room temperature for 10 minutes. Following incubation, the plates were spun at 3000×g for 30 seconds, then sealed with an optical adhesive cover, and luminescence readings were measured with an EnVision Plate Reader.
(§6) Data was normalized using zero luminescence for baseline. A four-parameter non-linear regression curve fit was applied to dose-response data in GraphPad Prism data analysis software to determine the half-maximal growth inhibitory concentration (GI50) for each test compound.

In test [2] the test system is T-Rex 293 cell line SC3 cells lacking increased expression of androgen receptor protein. Kind of test: Cellular growth inhibition, T-Rex 293 SC3 cells without doxycycline (no increased androgen receptor expression), CellTiter-Glo. Type of test: cell-based. The conditions noted are these: T-Rex 293 SC3 cells not exposed to doxycycline (no increased androgen receptor expression), 72 hours. The protocol: as §1, §2, §3, §4, §5, §6

Test [3] has as its system VCaP cells. The test is described as follows: Cellular growth inhibition assay for VCaP cells, CellTiter-Glo. Conditions: 72 hours. It counts as cell-based, human. The protocol: VCaP cells were purchased from American Type Cell Culture (ATCC Cat #CRL2876) and then seeded on poly-D-lysine coated, black clear-bottom 384-well plates at 5000/well in 25 μL Dulbecco's Modified Eagle Medium (DMEM) supplemented with 10% w/w Fetal bovine serum (FBS) and 1% w/w Pen-Strep. Pen-Strep is a commercially available mixture of penicillin G and streptomycin, which is used in mammalian cell culture media to prevent bacterial contamination. Dulbecco's Modified Eagle Medium (DMEM) supplemented with 10% w/w fetal bovine serum (FBS) and 1% w/w Pen-Strep is herein referred to as Treatment Medium. Following seeding of cells in the plates, the plates were spun at 300×g for 30 seconds, then equilibrated to room temperature for 30 minutes, and then deposited in a humidified tissue culture incubator maintained at 37° C. with 5% CO2.
as §4, §5, §6
Background: ATP-based viability assays read luminescence as a measure of living cells.

For orientation: GI50 means the concentration at which growth is held to half of that of the control. For `CCS(=O)(=O)Nc1ccc(Oc2cccc(OCCOC3CCN(c4ccc(C(=O)N[C@H]5C(C)(C)[C@H](Oc6ccc(C#N)c(Cl)c6)C5(C)C)nn4)CC3)c2F)c(-c2cn(C)c(=O)c3[nH]ccc23)c1` [Compound I-162], the 50% growth inhibitory concentration (GI50) in test [1] was under 0.5 µM; in test [2], over 3 µM; in test [3] (Homo sapiens), under 0.5 µM.
As to `CCS(=O)(=O)Nc1ccc(Oc2cccc(OC3CN(CC4CCN(c5ncc(C(=O)N[C@H]6C(C)(C)[C@H](Oc7ccc(C#N)c(Cl)c7)C6(C)C)cn5)CC4)C3)c2)c(-c2cn(C)c(=O)c3[nH]ccc23)c1` [Compound I-38], the GI50 in test [1], in test [2] and in test [3] (Homo sapiens) was under 0.5 µM throughout.
On to `Cn1cc(-c2cc(NS(=O)(=O)C3CC3)ccc2Oc2cccc(OCCC3CCN(c4ncc(C(=O)N[C@H]5C(C)(C)[C@H](Oc6ccc(C#N)c(Cl)c6)C5(C)C)cn4)CC3)c2)c2cc[nH]c2c1=O` [Compound I-130], for which the 50% growth inhibitory concentration (GI50) in test [1] is under 0.5 µM; in test [2] it was over 3 µM; in test [3], under 0.5 µM.
`CCS(=O)(=O)Nc1ccc(Oc2cccc(N(C)C3CC(C4CCN(c5ncc(C(=O)N[C@H]6C(C)(C)[C@H](Oc7ccc(C#N)c(Cl)c7)C6(C)C)cn5)CC4)C3)c2)c(-c2cn(C)c(=O)c3[nH]ccc23)c1` (stereo partly drawn) [Compound I-172]: the GI50 is under 0.5 µM in test [1], over 3 µM in test [2] and over 3 µM in test [3].
Regarding `CCS(=O)(=O)Nc1ccc(Oc2ccc(F)c(OCCOC3CCN(c4ncc(C(=O)N[C@H]5C(C)(C)[C@H](Oc6ccc(C#N)c(Cl)c6)C5(C)C)cn4)CC3)c2)c(-c2cn(C)c(=O)c3[nH]ccc23)c1` [Compound I-128], the GI50 in test [1] is under 0.5 µM; in test [2], over 3 µM; in test [3] (Homo sapiens), under 0.5 µM.
As to `CCS(=O)(=O)Nc1ccc(Oc2cc(OCCOC3CCN(c4ncc(C(=O)N[C@H]5C(C)(C)[C@H](Oc6ccc(C#N)c(Cl)c6)C5(C)C)cn4)CC3)ccc2F)c(-c2cn(C)c(=O)c3[nH]ccc23)c1` [Compound I-150], the GI50 is under 0.5 µM in test [1], over 3 µM in test [2] and under 0.5 µM in test [3] (Homo sapiens).
Regarding `Cn1cc(-c2cc(NS(=O)(=O)C3CC3)ccc2Oc2cccc(CCOC3CCN(c4ncc(C(=O)N[C@H]5C(C)(C)[C@H](Oc6ccc(C#N)c(Cl)c6)C5(C)C)cn4)CC3)c2F)c2cc[nH]c2c1=O` [Compound I-136], the GI50 in test [1], in test [2] and in test [3] was under 0.5 µM in each case.
As for `CCS(=O)(=O)Cc1ccc(Oc2cccc(OCCCC3CCN(c4ncc(C(=O)N[C@H]5C(C)(C)[C@H](Oc6ccc(C#N)c(Cl)c6)C5(C)C)cn4)CC3)c2F)c(-c2cn(C)c(=O)c3[nH]ccc23)c1` [Compound I-168], the 50% growth inhibitory concentration (GI50) in test [1] is under 0.5 µM; in test [2] it was over 3 µM; in test [3] (Homo sapiens) it was under 0.5 µM.
With `CCS(=O)(=O)Nc1ccc(Oc2cccc(OCCCC3CCN(c4ncc(C(=O)N[C@H]5C(C)(C)[C@H](Oc6ccc(C#N)c(Cl)c6)C5(C)C)cn4)CC3)c2F)c(-c2cn(C)c(=O)c3[nH]ccc23)c1` [Compound I-155], the concentration for 50% growth inhibition (GI50) in test [1] is under 0.5 µM; in test [2] it was over 3 µM; in test [3] (Homo sapiens), under 0.5 µM.
Regarding `CCS(=O)(=O)Nc1cnc(Oc2cccc(OCCOC3CCN(c4cnc(C(=O)N[C@H]5C(C)(C)[C@H](Oc6ccc(C#N)c(Cl)c6)C5(C)C)cn4)CC3)c2)c(-c2cn(C)c(=O)c3[nH]ccc23)c1` [Compound I-46], the results for the concentration for 50% growth inhibition (GI50) in test [1], in test [2] and in test [3] (Homo sapiens) were under 0.5 µM, over 3 µM and under 0.5 µM, respectively.
Take `CCS(=O)(=O)Nc1ccc(Oc2cccc(NCCN(C)C3CCN(c4ncc(C(=O)N[C@H]5C(C)(C)[C@H](Oc6ccc(C#N)c(Cl)c6)C5(C)C)cn4)CC3)c2)c(-c2cn(C)c(=O)c3[nH]ccc23)c1` [Compound I-173]: the concentration for 50% growth inhibition (GI50) is 0.5 to 1.5 µM in test [1], over 3 µM in test [2] and under 0.5 µM in test [3] (Homo sapiens).
The corresponding values for `CCS(=O)(=O)Cc1ccc(Oc2cccc(N3CC(N4CCN(c5ncc(C(=O)N[C@H]6C(C)(C)[C@H](Oc7ccc(C#N)c(Cl)c7)C6(C)C)cn5)CC4)C3)c2F)c(-c2cn(C)c(=O)c3[nH]ccc23)c1` [Compound I-174] are under 0.5 µM, over 3 µM and under 0.5 µM.
As to `Cn1cc(-c2cc(C(C)(C)O)ccc2Oc2ccc(N3CC4(CCN(c5cnc(C(=O)N[C@H]6C(C)(C)[C@H](Oc7ccc(C#N)c(Cl)c7)C6(C)C)cn5)CC4)C3)cc2)c2cc[nH]c2c1=O` [Compound I-352], the results for the GI50 in test [1], in test [2] and in test [3] were under 0.5 µM, over 3 µM and under 0.5 µM, respectively.
Take `CCS(=O)(=O)Nc1ccc(Oc2cccc(OCCNC3CCN(c4ncc(C(=O)N[C@H]5C(C)(C)[C@H](Oc6ccc(C#N)c(Cl)c6)C5(C)C)cn4)CC3)c2)c(-c2cn(C)c(=O)c3[nH]ccc23)c1` [Compound I-85]: the concentration for 50% growth inhibition (GI50) in test [1] is under 0.5 µM; in test [2], 0.5 to 1.5 µM; in test [3] (Homo sapiens), under 0.5 µM.
Take `CCC(=O)Nc1ccc(Oc2cccc(OCCOC3CCN(c4ncc(C(=O)N[C@H]5C(C)(C)[C@H](Oc6ccc(C#N)c(Cl)c6)C5(C)C)cn4)CC3)c2)c(-c2cn(C)c(=O)c3[nH]ccc23)c1` [Compound I-59, N-((1r, 3r)-3-(3-chloro-4-cyanophenoxy)-2,2,4,4-tetramethylcyclobutyl)-2-(4-(2-(3-(2-(6-methyl-7-oxo-6,7-dihydro-1H-pyrrolo[2,3-c]pyridin-4-yl)-4-propionamidophenoxy)phenoxy)ethoxy)piperidin-1-yl)pyrimidine-5-carboxamide]: the GI50 in test [1] was under 0.5 µM; in test [2] it was over 3 µM; in test [3] (Homo sapiens), over 3 µM.
For `CCS(=O)(=O)Cc1ccc(Oc2cccc(OCCOC3CCN(c4ccc(C(=O)N[C@H]5C(C)(C)[C@H](Oc6ccc(C#N)c(Cl)c6)C5(C)C)cn4)CC3)c2F)c(-c2cn(C)c(=O)c3[nH]ccc23)c1` [Compound I-166], the 50% growth inhibitory concentration (GI50) in test [1], in test [2] and in test [3] (Homo sapiens) was under 0.5 µM throughout.
`CCS(=O)(=O)Nc1ccc(Oc2cc(F)cc(OCCOC3CCN(c4ncc(C(=O)N[C@H]5C(C)(C)[C@H](Oc6ccc(C#N)c(Cl)c6)C5(C)C)cn4)CC3)c2)c(-c2cn(C)c(=O)c3[nH]ccc23)c1` [Compound I-127]: the concentration for 50% growth inhibition (GI50) was under 0.5 µM in test [1], over 3 µM in test [2] and under 0.5 µM in test [3] (Homo sapiens).
Regarding `CCS(=O)(=O)Nc1ccc(Oc2cccc(OCCCOC3CCN(c4ncc(C(=O)N[C@H]5C(C)(C)[C@H](Oc6ccc(C#N)c(Cl)c6)C5(C)C)cn4)CC3)c2)c(-c2cn(C)c(=O)c3[nH]ccc23)c1` [Compound I-17], the 50% growth inhibitory concentration (GI50) in test [1], in test [2] and in test [3] (Homo sapiens) was under 0.5 µM in each case.
In the case of `Cn1cc(-c2cc(NS(=O)(=O)C3CC3)ccc2Oc2cccc(CCCN3CCN(c4ncc(C(=O)N[C@H]5C(C)(C)[C@H](Oc6ccc(C#N)c(Cl)c6)C5(C)C)cn4)CC3)c2F)c2cc[nH]c2c1=O` [Compound I-135], the values for the 50% growth inhibitory concentration (GI50) in test [1], in test [2] and in test [3] were under 0.5 µM, over 3 µM and under 0.5 µM, respectively.

These data come from patent US20250388605A1, “HETEROBIFUNCTIONAL COMPOUNDS AND METHODS OF TREATING DISEASE” (Halda Therapeutics OpCo, Inc., priority 2022, published 2025).
